Reference: patent USRE44962E1, “Genetically engineered plant cells and plants exhibiting resistance to glutamine synthetase inhibitors, DNA fragments and recombinants for use in the production of said cells and plants” (Bayer Cropscience N.V., priority 1986, dated 2014)

Assays:
[1] = tested on: S. lividans; assay type: cell-based
[2] = molecular target: PPT acetyl transferase (Streptomyces hygroscopicus, UniProt P16426); assay type: biochemical, S. hygroscopicus ATCC 21 705; conditions: S. hygroscopicus derivates; S. lividans carrying pBG20 or pBG16
[3] = tested on: Phytophtora infestans; assay type: in vivo; conditions: sfr potato plants sprayed at 8 l/ha once symptoms visible, read two weeks later
[4] = tested on: E. coli W3110; test: Growth of E. coli W3110 on M9 medium containing Bialaphos; assay type: cell-based; conditions: for resistance of pBG93/W3110 to Bialaphos: M9 medium
[5] = tested on: glutamine synthetase (GS); conditions: cited from earlier work

PPT acetyl transferase, sequence (P16426 whole entry): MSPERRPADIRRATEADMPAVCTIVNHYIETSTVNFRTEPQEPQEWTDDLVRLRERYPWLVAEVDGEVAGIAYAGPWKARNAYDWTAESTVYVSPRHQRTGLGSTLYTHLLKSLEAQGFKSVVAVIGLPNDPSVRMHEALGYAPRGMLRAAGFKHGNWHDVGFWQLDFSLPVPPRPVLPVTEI

Structure (SMILES) | growth of transformants containing pBG20 ([1]; S. lividans with pBG20, medium containing 500 μg/ml Bialaphos) | Bialaphos concentration at which S. lividans growth is normally inhibited ([1]; untransformed S. lividans, minimal medium) [µg/mL] | acetylation by the PPT acetyl transferase activity [2] | growth of the fungus on treated plants [3] | growth of W3110 host devoid of pBG93 ([4]; M9 medium containing 5 μg/ml Bialaphos) | resistance of pBG93/W3110 to Bialaphos ([4]; in the presence of IPTG (0.5 mM)) [μg/ml] | resistance of pBG93/W3110 to Bialaphos ([4]; without IPTG) [μg/ml] | inhibition of glutamine synthetase (GS) [5]
CC(NC(=O)C(C)NC(=O)C(N)CCP(C)(=O)O)C(=O)O (stereo not shown) [Bialaphos] | not noticeably inhibited | 1 | does not acetylate | stopped | did not grow | 50 | 5 | 
CC(=O)NC(CCP(C)(=O)O)C(=O)O (stereo not shown) [N-acetyl PPT] |  |  |  |  |  |  |  | not an inhibitor
CP(=O)(O)CCC(N)C(=O)O (stereo not shown) [PPT, phosphinothricin] |  |  | could acetylate |  |  |  |  | inhibits
